Results published in PMC12048343, “Discovery of a small molecule secreted clusterin enhancer that improves memory in Alzheimer’s disease mice” (npj Drug Discovery, 2025).
Converted amounts (≈) assume the structure as drawn. Read-outs that look alike come from different tables or passages of the source.

Legend:
[1] = target: BRD4 (Homo sapiens, UniProt O60885); test: BRD4 inhibition assay; type: biochemical
[2] = target: BRD2 (Homo sapiens, UniProt P25440); test: BRD2 inhibition assay; type: biochemical
[3] = Brain tissue binding assay (dialysis); type: in vitro ADME
Experimental: (§1) Brain tissue was homogenized in PBS (pH 7.4) (1: 3 weight(mg)/volume(µL)) and the protein concentration was determined using the Micro BCA™ Protein Assay Kit (Thermo Fisher Scientific, Cat#23235). Brain homogenate was clarified and diluted to 20 mg/mL in PBS (pH 7.4). Either brain homogenate or plasma was and added to Slide-A-Lyzer™ MINI Dialysis Devices, 10 K MWCO dialysis cups (Thermo Fisher Scientific, Cat#PI88401) in a 48-well plate containing PBS (500 µL; pH 7.4). 1 µL of 1 mM compound was added to the brain homogenate (Final Concentration: 2 µM compound, 0.5% DMSO) and incubated on a rocker for 4.5 hours at 37 °C. 50 µL of brain homogenate or plasma (within the dialysis cup) and PBS (within the 48-well plate) were transferred to new microcentrifuge tubes containing 400 µL of quenching reagent (100% Acetonitrile) containing internal standard. Solutions were clarified by centrifugation (16,000 x g, 5 min), and the supernatants were transferred to new tubes and lyophilized. Samples were reconstituted in 100 µL of 50/50/0.1 (Water/Acetonitrile/Formic Acid) prior to analysis via liquid chromatography-tandem mass spectrometry (LC-MS/MS). The % of the unbound drug (fu,bound) was calculated using the following equation:
(§2) % Bound = [1− (PBS chromatographic peak area/ brain homogenate or plasma chromatographic peak area)] x 100

[4] = Plasma binding assay (dialysis); type: in vitro ADME; details: dialysis 4.5 hours, 37 °C
Experimental: as §1, §2

[5] = Kinetic solubility; type: physicochemical; details: aqueous buffer, kinetic from dmso stock, PBS pH 7.4, 37 °C, 100 µM nominal
Experimental: Test compound (10 mM, 100% DMSO) was diluted separately into aqueous buffer (100 µM; PBS pH 7.4) and DMSO at various concentrations (1000, 100, 10, 1, 0.1 µM). The solutions were then incubated at 37 °C for 90 min and centrifuged (16000xg, 5 min). An aliquot of each supernatant was analyzed by UV/Vis (if possible) or LC-MS/MS. A standard curve was made by plotting the known amount of analyte per standard in DMSO vs. absorbance or chromatographic peak area. Kinetic solubility (mM) was calculated using the trendline equation with maximum absorbance or chromatographic peak area observed in the aqueous sample.

[6] = Blood-Brain Barrier (BBB) permeability assay (IAM column, Pm); type: in vitro ADME; details: pH 7.4; Pm > 1.0 = CNS+
Experimental: A liquid chromatography-ultraviolet/visible spectroscopy (LC-UV/Vis) assay was performed on a 1290 Infinity HPLC system (Agilent Technologies) with an HPLC column containing immobilized phosphatidylcholine (IAM.PC.DD, Regis Technologies, Cat#774011, 5 µm 300 Å 100 ×4.6 mm). The HPLC method was a mixture of 6.7 mM phosphate buffer saline (pH 7.4; solvent A) and acetonitrile (solvent B), and a gradient was used for the elution of the compounds (min/%B: 0/20, 20/60, 21/20, 30/20). The retention time of the compound (tr) and void volume time of the column (t0) were recorded. Blood-brain barrier (BBB) permeability (Pm) was calculated using the following equations as described by Yoon et al. (10.1177/1087057105281656):
KIAM = (tr − t0) / t0; Pm = (KIAM / MW^4) x 10^10
Compounds with a Pm > 1.0 were determined to be BBB permeable (CNS + ) at pH 7.

[7] = Liver microsome stability assay; type: in vitro ADME; details: pH 7.4; human liver microsomes 0.5 mg/mL, NADPH, 37 °C, up to 120 min; read-out: Microsomal Stability t1/2
Experimental: An aliquot (1 µL) of test compound (1 mM, 100% DMSO) was added to an aqueous liver microsome solution (1000 µL, PBS pH 7.4, 0.5 mg/mL human liver microsomes (Thermo Fisher Scientific, Cat#HMMPL), 2 mM NADPH, 2 mM MgCl2) and incubated at 37 °C for 120 min. Aliquots (50 µL) of the microsome solution were taken at various time points (0, 5, 10, 15, 30, 60, 90, 120 min) and added to a reaction quenching solution (200 µL 100% Acetonitrile) containing an internal standard. Solutions were clarified by centrifugation (16,000 x g, 5 min), and the supernatants were transferred to new tubes and lyophilized. Samples were reconstituted in 100 µL of 50/50/0.1 (Water/Acetonitrile/Formic Acid) prior to analysis via liquid chromatography-tandem mass spectrometry (LC-MS/MS). Chromatographic peak areas normalized to the internal standard were plotted at each time point and the half-life (t1/2) of compound in liver microsomes was determined by using the trendline equation to calculate the time at which compound abundance was 50% of that at time point 0 (t0).

[8] = tested on: sCLU secreted from human U-87 MG glioblastoma cells; test: Human sCLU AlphaLISA on supernatant of U-87 MG cells (HTS, re-test, dose response); type: cell-based; details: Homo sapiens; U-87 MG cells, 30 h, AlphaLISA of supernatant; read-out: EC50 for sCLU increase
Experimental: Cell culture supernatant (2 μL) was added to a 384-well proxy plate preloaded with AlphaLISA HiBlock buffer (2 µL, 1X, CAT#AL004C, Perkin Elmer). Then an anti-sCLU antibody mixture (2 µL, mAb J84, biotinylated (10 nM, Cat# 3717-6-1000, Mabtech) and mAb CLU aa 22-227 (Cat#AF7084, R&D Systems), Acceptor bead conjugated (50 µg/mL, Cat#6772001, Perkin Elmer)) was added and incubated at room temperature for 1 hour. AlphaScreen Streptavidin Donor beads (2 µL, Cat#6760002S, Perkin Elmer) were added, incubated for an additional 30 min in the dark, and the plate was read in an Envision plate reader.
Human glioblastoma U-87 MG cells were proliferated in EMEM with 10% FBS and 1% P/S (complete medium) in 10 cm dishes until approximately 90% confluent. Following trypsinization, a suspension of 2 × 10^5 cells/mL (25 µL) were added to 384-well plates containing complete medium (25 µL) and library compounds from 9 plates (5 µM). After incubation for 30 h at 37 °C and 5% CO2, 2 μL of cell culture supernatant were analyzed via human sCLU AlphaLISA as described above. Cell culture medium and cells were added to the 384-well plates using the MultiDrop. The BioMek FX was used to pin the drugs and transfer the cell culture supernatant. The MANTIS liquid handler was used to added human sCLU AlphaLISA reagents.
Human glioblastoma U-87 MG cells were proliferated in EMEM with 10% FBS and 1% P/S (complete medium) in 10 cm dishes until approximately 90% confluent. […] After incubation for 30 hours at 37 °C and 5% CO2, 2 μL of cell culture supernatant were analyzed via human sCLU AlphaLISA as described above.

[9] = brain homogenate 20 mg/mL, 2 µM compound, dialysis 4.5 hours, 37 °C

BRD2, sequence (P25440 whole entry): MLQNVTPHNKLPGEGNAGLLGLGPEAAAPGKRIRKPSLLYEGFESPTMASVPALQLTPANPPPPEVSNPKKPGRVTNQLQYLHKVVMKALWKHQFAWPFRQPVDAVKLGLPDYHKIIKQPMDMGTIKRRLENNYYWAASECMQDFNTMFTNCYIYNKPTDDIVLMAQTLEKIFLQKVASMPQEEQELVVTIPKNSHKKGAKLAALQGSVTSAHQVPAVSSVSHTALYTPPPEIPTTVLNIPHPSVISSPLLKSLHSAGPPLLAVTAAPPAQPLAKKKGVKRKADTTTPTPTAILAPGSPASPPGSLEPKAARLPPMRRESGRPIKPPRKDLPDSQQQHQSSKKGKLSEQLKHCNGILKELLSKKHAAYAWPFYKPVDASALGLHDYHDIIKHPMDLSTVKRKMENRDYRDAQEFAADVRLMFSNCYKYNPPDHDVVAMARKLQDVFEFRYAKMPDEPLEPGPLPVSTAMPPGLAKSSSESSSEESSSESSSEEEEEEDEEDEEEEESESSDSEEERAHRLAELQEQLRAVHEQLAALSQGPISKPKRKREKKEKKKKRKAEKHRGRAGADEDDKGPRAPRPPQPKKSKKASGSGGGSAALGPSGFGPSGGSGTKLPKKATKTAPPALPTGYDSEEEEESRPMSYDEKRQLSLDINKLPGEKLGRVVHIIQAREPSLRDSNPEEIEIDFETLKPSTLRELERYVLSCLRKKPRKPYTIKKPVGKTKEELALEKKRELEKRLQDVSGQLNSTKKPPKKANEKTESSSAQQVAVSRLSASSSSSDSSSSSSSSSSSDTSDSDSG

In the case of `Cc1sc2c(c1C)C(c1ccc(Cl)cc1)=N[C@@H](CC(=O)OC1COC1)c1nnc(C)n1-2` [DDL-356], the IC50 [1] is reported as 0.023 µM, the IC50 [2] is reported as 0.158 µM and the “Brain Tissue Binding” value [3, 9] is reported as 57 % bound. The “Plasma Binding” value [4] was 79 % bound, the solubility kinetic at 90 min [5] was over 100 µM and the “PAMPA Pm” value [6] was 0.96. The half-life at 1 µM [7] was 1.25 h and the EC50 [8] was 0.178 µM.

`Cc1sc2c(c1C)C(c1ccc(Cl)cc1)=N[C@@H](CC(=O)OC1CC1)c1nnc(C)n1-2` [DDL-357] gave an IC50 [1] of 0.02 µM, an IC50 [2] of 0.161 µM and a Brain Tissue Binding [3] of 75.3%. The “Brain Tissue Binding” value [3, 9] was 75 % bound, the “Plasma Binding” value [4] was 88 % bound and the solubility kinetic at 90 min [5] was 80 µM (≈ 35.3 µg/mL). For the same compound, the “PAMPA Pm” value [6] was 1.66, the half-life at 1 µM [7] was 1.02 h and the EC50 [8] was 0.223 µM.
